# Read-outs that look alike come from different tables or passages of the source.
# Key:
# [1] = target: T1, MAO-B (Homo sapiens, UniProt P27338); conditions: cited from earlier work; for inhibitory strength to MAO-B than that to MAO-A: selectivity MAO-B over MAO-A
# T1 sequence (P27338 1-520): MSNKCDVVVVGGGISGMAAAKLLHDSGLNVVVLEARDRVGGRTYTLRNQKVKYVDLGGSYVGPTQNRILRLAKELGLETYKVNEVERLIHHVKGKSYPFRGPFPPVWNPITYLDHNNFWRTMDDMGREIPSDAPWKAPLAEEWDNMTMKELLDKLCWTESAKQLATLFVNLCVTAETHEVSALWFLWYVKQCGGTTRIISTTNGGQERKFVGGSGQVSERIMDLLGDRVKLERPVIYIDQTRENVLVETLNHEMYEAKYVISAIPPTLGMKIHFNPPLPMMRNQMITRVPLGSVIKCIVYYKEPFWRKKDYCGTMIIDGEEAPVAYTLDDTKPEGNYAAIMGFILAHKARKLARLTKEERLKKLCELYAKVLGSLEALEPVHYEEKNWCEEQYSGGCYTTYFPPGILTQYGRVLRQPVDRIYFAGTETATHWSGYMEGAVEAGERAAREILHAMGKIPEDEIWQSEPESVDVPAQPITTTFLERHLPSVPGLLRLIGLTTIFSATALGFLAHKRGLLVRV
# [2] = tested on: MPTP-induced mouse Parkinson's disease model; test: MPTP-induced mouse Parkinson's disease model, dopamine content in dorsal striatum by LC-MS; type: in vivo, male C57BL/6J mice
# Experimental: Animals in control group were injected with an equal volume of […]. After 6 weeks, mice were euthanized and the dorsal striatum was separated after normal saline perfusion, weighed and preserved in a −80° C. freezer. The content of dopamine in dorsal striatal was determined by LC-MS. [table]
# [3] = tested on: 6-OHDA-induced unilateral damage PD model; test: Apomorphine-induced contralateral circling test in 6-OHDA-induced rat Parkinson's disease model; type: in vivo, male Wistar rat; conditions: after 29 days of treatment, FIG. 3
# Experimental: 3.1.2 The animals were injected intraperitoneally with APO (0.5 mg/kg, 2 mL/kg) 3 minutes before testing.
# 3.1.3 The animals were placed in a circular test box after dosing. Changes in animal behavior were observed and recorded by Ethovi si on video software, and the number of revolutions of each animal within 30 min was counted manually.
# 3.1.4 APO-induced circling behavior: The animal circled rightwards with the left hind limb as the fulcrum. One turn was counted as one revolution by taking the head of the rat as a reference. Animals with more than 180 revolutions within 30 min were qualified rat Parkinson's disease models.
# 3.2.1 140 animals were randomly selected, and intramuscularly injected with Zoletil at 30 mg/kg in combination with 3 mg/kg of xylazine hydrochloride for general anesthesia before the operation.
# 3.2.7 The injection of 6-OHDA was started 2 min after the needle reached the designated depth. […]
# 3.3.3 The animals were placed in a circular test box after dosing. Changes in animal behavior were observed and recorded by Ethovision video software, and the number of revolutions of each animal within 30 min was counted manually.
# 3.3.4 APO-induced circling behavior: The animal circled rightwards with the left hind limb as the fulcrum. One turn was counted as one revolution by taking the head of the rat as a reference. […]
# [4] = tested on: patients with early PD; conditions: 24 weeks, cited from earlier work
SMILES,reversibility of MAO-B inhibition [1],inhibitory strength to MAO-B than that to MAO-A [1] [fold],"effect on dopamine reduction in the MPTP model (FIG. 1) ([2]; average dopamine concentration in mouse brain, all dose groups)",dopamine levels in dorsal striatum compared with modeling group G2 ([2]; compound B group (15 mg/kg i.p. QD 6 weeks)),"elevation in the number of revolutions compared with that before treatment ([3]; G3, SAF 15 mpk P.O. QD) [%]","improvement of movement symptoms (total UPDRS score, LPDRS [sic]) ([4]; safinamide 100 mg/d in combination with DA receptor agonist)","improvement of movement symptoms (total UPDRS score, LPDRS [sic]) ([4]; safinamide 200 mg/d in combination with DA receptor agonist)",time after discontinuation until physiological function completely restored ([1]; after discontinuation) [h],"reduction in the number of revolutions compared with that before treatment ([3]; G4, PPX 0.1 mpk P.O. QD) [%]"
C#CCN[C@@H]1CCc2ccccc21 [rasagiline],irreversible,103,–,–,–,–,–,–,–
"C[C@H](NCc1ccc(OCc2cccc(F)c2)cc1)C(N)=O [Compound B, Safinamide]",reversible,5000,improvement effects,significantly higher,5,effective,no effect in improving movement symptoms,8,–
"CCCN[C@H]1CCc2nc(N)sc2C1 [Compound A, Pramipexole]",–,–,–,–,–,–,–,–,24

# From patent US20230028539A1, “PHARMACEUTICAL COMPOSITION, COMPLEMENTARY KIT AND APPLICATION THEREOF” (SHANGHAI PHARMACEUTICALS HOLDING CO., LTD., priority 2019, published 2023)
